Laboratory results from PubChem BioAssay (NCI).
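Method: 48-hour compound exposure of cells in 96-well plates, five concentrations, linear interpolation of endpoints. The concentration for 50% growth inhibition is given as GI50. At the TGI there is no net growth.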

How the values were obtained:
Assay in all cases: DTP human tumour cell line panel, 48 h
786-0 renal = system: 786-0 renal
HOP-92 NSCLC = system: HOP-92 NSCLC
NCI-H460 lung = system: NCI-H460 lung
LOX IMVI melanoma = system: LOX IMVI melanoma
MDA-MB-435 = system: MDA-MB-435
HT29 colon = system: HT29 colon
SF-268 CNS = system: SF-268 CNS
MOLT-4 leukemia = system: MOLT-4 leukemia
UACC-62 melanoma = system: UACC-62 melanoma
UACC-257 melanoma = system: UACC-257 melanoma
SNB-75 CNS = system: SNB-75 CNS
BT-549 breast = system: BT-549 breast
UO-31 renal = system: UO-31 renal
K-562 leukemia = system: K-562 leukemia
PC-3 prostate = system: PC-3 prostate
NCI/ADR-RES ovarian = system: NCI/ADR-RES ovarian
COLO 205 colon = system: COLO 205 colon
IGROV1 ovarian = system: IGROV1 ovarian
HL-60(TB) leukemia = system: HL-60(TB) leukemia
SF-539 CNS = system: SF-539 CNS
TK-10 renal = system: TK-10 renal
EKVX NSCLC = system: EKVX NSCLC
SNB-19 CNS = system: SNB-19 CNS
SW-620 colon = system: SW-620 colon
HCT-116 colon = system: HCT-116 colon
NCI-H226 lung = system: NCI-H226 lung
OVCAR-5 ovarian = system: OVCAR-5 ovarian
U251 CNS = system: U251 CNS
DU-145 prostate = system: DU-145 prostate
MDA-MB-231 breast = system: MDA-MB-231 breast
SK-MEL-28 melanoma = system: SK-MEL-28 melanoma
M14 melanoma = system: M14 melanoma
A549 NSCLC = system: A549 NSCLC
ACHN renal = system: ACHN renal
HOP-62 NSCLC = system: HOP-62 NSCLC
OVCAR-4 ovarian = system: OVCAR-4 ovarian
SK-MEL-5 melanoma = system: SK-MEL-5 melanoma
KM12 colon = system: KM12 colon
SF-295 CNS = system: SF-295 CNS
T-47D breast = system: T-47D breast
MCF7 breast = system: MCF7 breast
HS 578T breast = system: HS 578T breast
RXF 393 renal = system: RXF 393 renal
A498 renal = system: A498 renal
OVCAR-8 ovarian = system: OVCAR-8 ovarian
SK-MEL-2 melanoma = system: SK-MEL-2 melanoma
CAKI-1 renal = system: CAKI-1 renal
SK-OV-3 ovarian = system: SK-OV-3 ovarian
NCI-H522 lung = system: NCI-H522 lung
HCT-15 colon = system: HCT-15 colon
HCC-2998 colon = system: HCC-2998 colon
CCRF-CEM leukemia = system: CCRF-CEM leukemia
MALME-3M melanoma = system: MALME-3M melanoma
SR leukemia = system: SR leukemia
RPMI-8226 leukemia = system: RPMI-8226 leukemia
NCI-H23 lung = system: NCI-H23 lung
SN12C renal = system: SN12C renal

## Nc1nc(N)c2c(n1)NC(c1ccc(Cl)cc1)CC(c1ccc(Nc3nc(NCCO)nc(Nc4ccc(Cl)cc4)n3)cc1)=N2 (stereo not given)
786-0 renal
  GI50: 1.55 µM
  TGI: 3.04 µM
HOP-92 NSCLC
  GI50: 1.29 µM
  TGI: 3.12 µM
NCI-H460 lung
  GI50: 1.72 µM
  TGI: 3.32 µM
LOX IMVI melanoma
  GI50: 1.45 µM
  TGI: 2.86 µM
MDA-MB-435
  GI50: 1.63 µM
  TGI: 3.18 µM
HT29 colon
  GI50: 1.7 µM
  TGI: 3.68 µM
SF-268 CNS
  GI50: 4.14 µM
  TGI: 26.1 µM
MOLT-4 leukemia
  GI50: 0.792 µM
  TGI: 3.92 µM
UACC-62 melanoma
  GI50: 2.03 µM
  TGI: 4.28 µM
UACC-257 melanoma
  GI50: 1.91 µM
  TGI: 3.74 µM
SNB-75 CNS
  GI50: 1.59 µM
  TGI: 3.97 µM
BT-549 breast
  GI50: 2.25 µM
  TGI: 5.89 µM
UO-31 renal
  GI50: 3.1 µM
  TGI: 15.3 µM
K-562 leukemia
  GI50: 0.713 µM
  TGI: 3.2 µM
PC-3 prostate
  GI50: 1.93 µM
  TGI: 7.55 µM
NCI/ADR-RES ovarian
  GI50: 4.24 µM
  TGI: > 100 µM
COLO 205 colon
  GI50: 1.51 µM
  TGI: 3.59 µM
IGROV1 ovarian
  GI50: 1.71 µM
  TGI: 3.58 µM
HL-60(TB) leukemia
  GI50: 1.15 µM
  TGI: 3.94 µM
SF-539 CNS
  GI50: 1.68 µM
  TGI: 3.32 µM
TK-10 renal
  GI50: 10.6 µM
  TGI: 25.3 µM
EKVX NSCLC
  GI50: 2.01 µM
  TGI: 6.88 µM
SNB-19 CNS
  GI50: 1.99 µM
  TGI: 5.81 µM
SW-620 colon
  GI50: 1.62 µM
  TGI: 3.3 µM
HCT-116 colon
  GI50: 1.4 µM
  TGI: 2.69 µM
NCI-H226 lung
  GI50: 6.47 µM
  TGI: 29.8 µM
OVCAR-5 ovarian
  GI50: 4.48 µM
  TGI: 19.8 µM
U251 CNS
  GI50: 1.47 µM
  TGI: 2.92 µM
DU-145 prostate
  GI50: 2.22 µM
  TGI: 5.81 µM
MDA-MB-231 breast
  GI50: 1.75 µM
  TGI: 3.92 µM
SK-MEL-28 melanoma
  GI50: 1.73 µM
  TGI: 3.11 µM
M14 melanoma
  GI50: 1.9 µM
  TGI: 4.39 µM
A549 NSCLC
  GI50: 4.12 µM
  TGI: > 100 µM
ACHN renal
  GI50: 4.69 µM
  TGI: > 100 µM
HOP-62 NSCLC
  GI50: 2.83 µM
  TGI: 10.9 µM
OVCAR-4 ovarian
  GI50: 1.96 µM
  TGI: 5.04 µM
SK-MEL-5 melanoma
  GI50: 1.48 µM
  TGI: 2.8 µM
KM12 colon
  GI50: 3.18 µM
  TGI: 10.3 µM
SF-295 CNS
  GI50: 1.73 µM
  TGI: 3.67 µM
T-47D breast
  GI50: 1.71 µM
  TGI: 6.51 µM
MCF7 breast
  GI50: 1.2 µM
  TGI: 2.57 µM
HS 578T breast
  GI50: 2.22 µM
  TGI: 5.01 µM
RXF 393 renal
  GI50: 1.54 µM
  TGI: 2.97 µM
A498 renal
  GI50: 5.9 µM
  TGI: 19.8 µM
OVCAR-8 ovarian
  GI50: 1.57 µM
  TGI: 3.27 µM
SK-MEL-2 melanoma
  GI50: 1.45 µM
  TGI: 2.83 µM
CAKI-1 renal
  GI50: 5.36 µM
  TGI: 28.2 µM
SK-OV-3 ovarian
  GI50: 14.8 µM
  TGI: 29.3 µM
NCI-H522 lung
  GI50: 1.56 µM
  TGI: 3.16 µM
HCT-15 colon
  GI50: 1.29 µM
  TGI: 2.8 µM
HCC-2998 colon
  GI50: 1.44 µM
  TGI: 2.78 µM

## Oc1ccc(CSc2nnc(-c3ccc(Cl)cc3)o2)c2cccnc12
786-0 renal
  GI50: 3.22 µM
  TGI: > 100 µM
HOP-92 NSCLC
  GI50: 1.14 µM
  TGI: 6.72 µM
MDA-MB-435
  GI50: 2.96 µM
  TGI: > 100 µM
HT29 colon
  GI50: > 100 µM
  TGI: > 100 µM
SF-268 CNS
  GI50: 1.56 µM
  TGI: > 100 µM
MOLT-4 leukemia
  GI50: 2.37 µM
  TGI: > 100 µM
UACC-257 melanoma
  GI50: 3.19 µM
  TGI: > 100 µM
SNB-75 CNS
  GI50: 1.52 µM
  TGI: 7.81 µM
CCRF-CEM leukemia
  GI50: 1 µM
  TGI: > 100 µM
BT-549 breast
  GI50: 2.47 µM
  TGI: > 100 µM
K-562 leukemia
  GI50: 2.17 µM
  TGI: > 100 µM
PC-3 prostate
  GI50: 1.49 µM
  TGI: > 100 µM
COLO 205 colon
  GI50: > 100 µM
  TGI: > 100 µM
IGROV1 ovarian
  GI50: 2.8 µM
  TGI: > 100 µM
HL-60(TB) leukemia
  GI50: 1.91 µM
  TGI: 9.57 µM
EKVX NSCLC
  GI50: 2.76 µM
  TGI: > 100 µM
SNB-19 CNS
  GI50: 1.52 µM
  TGI: > 100 µM
SW-620 colon
  GI50: 2.91 µM
  TGI: > 100 µM
HCT-116 colon
  GI50: 1.76 µM
  TGI: > 100 µM
U251 CNS
  GI50: 1.11 µM
  TGI: > 100 µM
DU-145 prostate
  GI50: 3.67 µM
  TGI: > 100 µM
MDA-MB-231 breast
  GI50: 3.18 µM
  TGI: > 100 µM
SK-MEL-28 melanoma
  GI50: 2.38 µM
  TGI: > 100 µM
A549 NSCLC
  GI50: 2.78 µM
  TGI: > 100 µM
HOP-62 NSCLC
  GI50: 2.92 µM
  TGI: > 100 µM
MALME-3M melanoma
  GI50: 2.87 µM
  TGI: > 100 µM
OVCAR-4 ovarian
  GI50: 3.07 µM
  TGI: > 100 µM
SK-MEL-5 melanoma
  GI50: 1.89 µM
  TGI: 5.16 µM
SR leukemia
  GI50: 0.777 µM
  TGI: > 100 µM
KM12 colon
  GI50: 1.96 µM
  TGI: > 100 µM
SF-295 CNS
  GI50: 2.34 µM
  TGI: > 100 µM
T-47D breast
  GI50: 2.54 µM
  TGI: > 100 µM
MCF7 breast
  GI50: 2.66 µM
  TGI: > 100 µM
HS 578T breast
  GI50: 1.62 µM
  TGI: 64.7 µM
RXF 393 renal
  GI50: 2.37 µM
  TGI: > 100 µM
RPMI-8226 leukemia
  GI50: 1.22 µM
  TGI: > 100 µM
OVCAR-8 ovarian
  GI50: 2.32 µM
  TGI: > 100 µM
CAKI-1 renal
  GI50: 2.91 µM
  TGI: > 100 µM
SK-OV-3 ovarian
  GI50: 3.15 µM
  TGI: > 100 µM
NCI-H522 lung
  GI50: 2.92 µM
  TGI: > 100 µM
NCI-H23 lung
  GI50: 2.42 µM
  TGI: > 100 µM
HCT-15 colon
  GI50: 0.698 µM
  TGI: > 100 µM
HCC-2998 colon
  GI50: 2.29 µM
  TGI: > 100 µM
SN12C renal
  GI50: 2.54 µM
  TGI: > 100 µM
